Experimental data published in article PMC6100082, “Pyridine-Ureas as Potential Anticancer Agents: Synthesis and In Vitro Biological Evaluation” (Molecules : A Journal of Synthetic Chemistry and Natural …, 2018).

How the values were obtained:
[1] = system: PC-3; assay: NCI one-dose SRB assay (Prostate); assay type: cell-based, human; conditions: for Growth Percent: PC-3, 1.00E-5 Molar; for inhibition at 10 µM: Homo sapiens, read-out: Percentage growth inhibition (GI%)
Method: (§1) The structures of all the newly prepared pyridine-ureas 8a–n were submitted to the National Cancer Institute (NCI) Developmental Therapeutic Program. Eight compounds 8b, 8d, 8e, 8i, 8j and 8l–n were selected to be examined for their in vitro growth inhibitory activity. The anticancer assays were carried out according to the protocol of the Drug Evaluation Branch, NCI, Bethesda. The selected pyridine-ureas were tested at one dose primary anticancer assay against a panel of approximately 58 cancer lines (concentration 10^−5 M). The tested human cancer cell lines emerged from nine different cancer subtypes: leukemia, colon, melanoma, ovarian, lung, CNS, renal, breast and prostate cancers. The sulforhodamine B (SRB) protein assay was adopted to estimate the cell viability and growth. The results were reported as mean-graph of the percentage growth of the treated cells, and presented as percentage growth inhibition (GI%) caused by the test compounds (Table 2).
(§2) The anticancer assays were performed in accordance with the protocol of the Drug Evaluation Branch, NCI, Bethesda. A 48 h drug exposure protocol was used and sulforhodamine B (SRB) protein assay was applied to estimate the cell viability and growth, as reported earlier.

[2] = system: DU-145; assay: NCI one-dose SRB assay (Prostate); assay type: cell-based, human; conditions: for Growth Percent: DU-145, 1.00E-5 Molar; for inhibition at 10 µM: Homo sapiens, read-out: Percentage growth inhibition (GI%)
Method: as §1, §2

[3] = system: NCI-H226; assay: NCI one-dose SRB assay (Non-Small Cell Lung Cancer); assay type: cell-based, human; conditions: for Growth Percent: NCI-H226, 1.00E-5 Molar; for inhibition at 10 µM: Homo sapiens, read-out: Percentage growth inhibition (GI%)
Method: as §1, §2

[4] = system: HOP-92; assay: as above; assay type: cell-based, human; conditions: for Growth Percent: HOP-92, 1.00E-5 Molar; for inhibition at 10 µM: Homo sapiens, read-out: Percentage growth inhibition (GI%)
Method: as §1, §2

[5] = system: NCI-H322M; assay: as above; assay type: cell-based, human; conditions: for Growth Percent: 1.00E-5 Molar; for inhibition at 10 µM: Homo sapiens, read-out: Percentage growth inhibition (GI%)
Method: as §1, §2

[6] = system: NCI-H460; assay: as above; assay type: cell-based, human; conditions: for Growth Percent: NCI-H460, 1.00E-5 Molar; for inhibition at 10 µM: Homo sapiens, read-out: Percentage growth inhibition (GI%)
Method: as §1, §2

[7] = system: NCI-H23; assay: as above; assay type: cell-based, human; conditions: for Growth Percent: NCI-H23, 1.00E-5 Molar; for inhibition at 10 µM: Homo sapiens, read-out: Percentage growth inhibition (GI%)
Method: as §1, §2

[8] = system: A549/ATCC; assay: as above; assay type: cell-based, human; conditions: for Growth Percent: 1.00E-5 Molar; for inhibition at 10 µM: Homo sapiens, read-out: Percentage growth inhibition (GI%)
Method: as §1, §2

[9] = system: EKVX; assay: as above; assay type: cell-based, human; conditions: for Growth Percent: 1.00E-5 Molar; for inhibition at 10 µM: Homo sapiens, read-out: Percentage growth inhibition (GI%)
Method: as §1, §2

[10] = system: HOP-62; assay: as above; assay type: cell-based, human; conditions: for Growth Percent: HOP-62, 1.00E-5 Molar; for inhibition at 10 µM: Homo sapiens, read-out: Percentage growth inhibition (GI%)
Method: as §1, §2

[11] = system: NCI-H522; assay: as above; assay type: cell-based, human; conditions: for Growth Percent: NCI-H522, 1.00E-5 Molar; for inhibition at 10 µM: Homo sapiens, read-out: Percentage growth inhibition (GI%)
Method: as §1, §2

[12] = system: non-tumorigenic human lung fibroblast WI-38 cell line; assay: Cytotoxic activity against non-tumorigenic cells, MTT assay; assay type: cell-based; conditions: WI-38, MTT
Method: The cytotoxic activity of compounds 8b and 8e were evaluated against non-tumorigenic human lung fibroblast WI-38 cell line utilizing the MTT colorimetric assay developed by T. Mosmann (Table 3).
MCF-7 (human breast cancer cell line) and WI-38 (human lung fibroblast cell line), were obtained from American Type Culture Collection (Manassas, VA, USA). The cells were propagated in DMEM and supplemented with 10% heat-inactivated FBS (Hyclone), 10 μg/mL of insulin (Manufacturer, Sigma, St. Louis, MO, USA), and 1% penicillin-streptomycin. MTT assay was utilized to examine the in vitro anti-proliferative activity of the newly prepared ureas following the reported procedures. […] The data presented are the mean of at least three separate experiments.

[13] = biological target: VEGFR-2 (Homo sapiens, UniProt P35968); assay: VEGFR-2 inhibitory assay (Alpha Screen, anti-phosphotyrosine antibody)
Chain of VEGFR-2 (P35968 20-1356, species assumed): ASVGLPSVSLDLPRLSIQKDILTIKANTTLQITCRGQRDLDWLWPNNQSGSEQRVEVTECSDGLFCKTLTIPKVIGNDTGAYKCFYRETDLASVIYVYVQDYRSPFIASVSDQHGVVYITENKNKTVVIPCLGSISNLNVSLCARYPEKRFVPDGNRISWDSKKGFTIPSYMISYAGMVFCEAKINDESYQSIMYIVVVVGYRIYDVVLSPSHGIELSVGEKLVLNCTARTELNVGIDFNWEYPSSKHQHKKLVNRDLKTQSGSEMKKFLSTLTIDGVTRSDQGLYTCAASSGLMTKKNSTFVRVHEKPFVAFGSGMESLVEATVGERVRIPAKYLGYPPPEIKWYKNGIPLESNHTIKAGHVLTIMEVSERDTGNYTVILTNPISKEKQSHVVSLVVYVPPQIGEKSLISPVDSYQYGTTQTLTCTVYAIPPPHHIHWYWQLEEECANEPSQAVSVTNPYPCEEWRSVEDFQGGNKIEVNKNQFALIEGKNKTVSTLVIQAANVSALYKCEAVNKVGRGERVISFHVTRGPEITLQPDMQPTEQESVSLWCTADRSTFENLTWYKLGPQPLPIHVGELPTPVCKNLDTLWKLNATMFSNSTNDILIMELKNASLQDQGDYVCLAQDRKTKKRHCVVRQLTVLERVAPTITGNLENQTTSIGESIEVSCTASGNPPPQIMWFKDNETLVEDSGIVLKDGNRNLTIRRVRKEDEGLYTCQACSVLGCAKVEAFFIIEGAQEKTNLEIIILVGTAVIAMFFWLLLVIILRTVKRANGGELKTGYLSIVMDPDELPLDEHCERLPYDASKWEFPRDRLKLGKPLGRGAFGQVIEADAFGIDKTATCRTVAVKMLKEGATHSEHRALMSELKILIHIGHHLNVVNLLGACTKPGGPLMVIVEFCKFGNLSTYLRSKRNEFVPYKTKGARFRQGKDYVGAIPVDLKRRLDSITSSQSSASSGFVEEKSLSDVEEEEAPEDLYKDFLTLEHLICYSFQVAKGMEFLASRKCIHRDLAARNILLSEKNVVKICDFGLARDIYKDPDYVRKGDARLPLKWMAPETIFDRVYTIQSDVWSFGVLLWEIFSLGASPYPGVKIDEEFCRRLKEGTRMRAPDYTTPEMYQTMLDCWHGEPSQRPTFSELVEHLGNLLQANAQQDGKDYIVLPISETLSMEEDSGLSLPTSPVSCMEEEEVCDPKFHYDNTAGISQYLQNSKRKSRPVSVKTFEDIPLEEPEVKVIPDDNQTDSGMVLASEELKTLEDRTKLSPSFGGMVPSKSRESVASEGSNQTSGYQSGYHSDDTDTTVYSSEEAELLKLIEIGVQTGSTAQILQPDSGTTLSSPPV

| Compound | Growth Percent [1] | Growth Percent [2] | Growth Percent [3] | Growth Percent [4] | Growth Percent [5] | Growth Percent [6] | Growth Percent [7] | Growth Percent [8] | Growth Percent [9] | Growth Percent [10] | Growth Percent [11] | inhibition at 10 µM ([1]; PC-3, 10 μM) | inhibition at 10 µM ([2]; DU-145, 10 μM) | inhibition at 10 µM ([3]; NCI-H226, 10 μM) | inhibition at 10 µM ([4]; HOP-92, 10 μM) | inhibition at 10 µM ([5]; 10 μM) | inhibition at 10 µM ([6]; NCI-H460, 10 μM) | inhibition at 10 µM ([7]; NCI-H23, 10 μM) | inhibition at 10 µM ([8]; 10 μM) | inhibition at 10 µM ([9]; 10 μM) | also measured |
| --- | --- | --- | --- | --- | --- | --- | --- | --- | --- | --- | --- | --- | --- | --- | --- | --- | --- | --- | --- | --- | --- |
| 1-(4-Chloro-4-(trifluoromethyl)cyclohexa-2,5-dien-1-yl)-3-(6-(3,4-dimethoxyphenyl)-2-methylpyridin-3-yl)urea [Compound 8l] | 33.54% | 80.60% | 72.73% | 70.53% | 87.05% | 52.19% | 71.36% | 44.62% | 67.30% | 77.10% | 43.02% |  |  |  |  |  |  |  |  |  | Percentage growth inhibition (GI%) ([1]; PC-3, 10 μM): 67%; Percentage growth inhibition (GI%) ([2]; DU-145, 10 μM): 20%; Percentage growth inhibition (GI%) ([3]; NCI-H226, 10 μM): 28%; Percentage growth inhibition (GI%) ([4]; HOP-92, 10 μM): 30%; Percentage growth inhibition (GI%) ([5]; 10 μM): 13%; Percentage growth inhibition (GI%) ([6]; NCI-H460, 10 μM): 48%; Percentage growth inhibition (GI%) ([7]; NCI-H23, 10 μM): 29%; Percentage growth inhibition (GI%) ([8]; 10 μM): 56%; Percentage growth inhibition (GI%) ([9]; 10 μM): 33%; Percentage growth inhibition (GI%) ([10]; HOP-62, 10 μM): 23%; Percentage growth inhibition (GI%) ([11]; NCI-H522, 10 μM): 57% |
| COc1ccc(-c2ccc(NC(=O)Nc3cccc(C(F)(F)F)c3)c(C)n2)cc1 [Compound 8b, 1-(6-(4-Methoxyphenyl)-2-methylpyridin-3-yl)-3-(3-(trifluoromethyl)phenyl) Urea] | 24.40% | 68.79% | 58.09% | 68.79% | 64.44% | 48.67% | 47.63% | 42.47% | 41.42% | 67.99% | 28.48% | 76% | 32% | 42% | 32% | 36% | 52% | 53% | 58% | 59% | IC50 [12]: 91.5 ± 4.53 µM; IC50 [13]: 5 ± 1.91 µM; inhibition at 10 µM ([10]; HOP-62, 10 μM): 33%; inhibition at 10 µM ([11]; NCI-H522, 10 μM): 72% |
| COc1ccc(-c2ccc(NC(=O)Nc3ccc(Cl)cc3)c(C)n2)cc1 [Compound 8d, 1-(4-Chlorophenyl)-3-(6-(4-methoxyphenyl)-2-methylpyridin-3-yl) Urea] | 76.01% | 98.63% | 97.81% | 81.02% | 65.27% | 64.55% | 94.08% | 68.26% | 92.90% | 81.25% | 67.47% | 24% | < 10% | < 10% | 19% | 35% | 36% | < 10% | 32% | < 10% | inhibition at 10 µM ([10]; HOP-62, 10 μM): 19%; inhibition at 10 µM ([11]; NCI-H522, 10 μM): 33% |
| COc1ccc(-c2ccc(NC(=O)Nc3cccc(C(F)(F)F)c3)c(C)n2)cc1OC [Compound 8i, 1-(6-(3,4-Dimethoxyphenyl)-2-methylpyridin-3-yl)-3-(3-(trifluoromethyl)phenyl) Urea] | 27.45% | 82.57% | 72.63% | 55.33% | 92.59% | 61.77% | 71.94% | 60.26% | 66.90% | 92.32% | 40.25% | 73% | 18% | 28% | 45% | < 10% | 39% | 29% | 40% | 34% | inhibition at 10 µM ([10]; HOP-62, 10 μM): < 10%; inhibition at 10 µM ([11]; NCI-H522, 10 μM): 60% |
| COc1ccc(-c2ccc(NC(=O)Nc3cccc(Cl)c3)c(C)n2)cc1OC [Compound 8j, 1-(3-Chlorophenyl)-3-(6-(3,4-dimethoxyphenyl)-2-methylpyridin-3-yl) Urea] | 39.30% | 101.79% | 91.65% | 60.18% | 85.92% | 83.94% | 89.49% | 61.64% | 83.81% | 77.77% | 59.88% | 61% | < 10% | < 10% | 40% | 15% | 17% | 11% | 39% | 17% | inhibition at 10 µM ([10]; HOP-62, 10 μM): 23%; inhibition at 10 µM ([11]; NCI-H522, 10 μM): 41% |
| COc1cccc(NC(=O)Nc2ccc(-c3ccc(OC)c(OC)c3)nc2C)c1 [Compound 8m, 1-(6-(3,4-Dimethoxyphenyl)-2-methylpyridin-3-yl)-3-(3-methoxyphenyl) Urea] | 59.08% | 99.53% | 94.44% | 81.00% | 95.22% | 102.12% | 90.97% | 90.54% | 100.68% | 94.75% | 53.07% | 41% | < 10% | < 10% | 19% | < 10% | < 10% | 10% | 10% | < 10% | inhibition at 10 µM ([10]; HOP-62, 10 μM): < 10%; inhibition at 10 µM ([11]; NCI-H522, 10 μM): 47% |
| COc1ccc(NC(=O)Nc2ccc(-c3ccc(OC)c(OC)c3)nc2C)cc1 [Compound 8n, 1-(6-(3,4-Dimethoxyphenyl)-2-methylpyridin-3-yl)-3-(4-methoxyphenyl) Urea] | 81.42% | 72.24% | 58.04% | 73.37% | 86.96% | 17.58% | 67.43% | 57.02% | 91.15% | 56.53% | 49.88% | 19% | 28% | 42% | 27% | 14% | 83% | 33% | 43% | < 10% | inhibition at 10 µM ([10]; HOP-62, 10 μM): 44%; inhibition at 10 µM ([11]; NCI-H522, 10 μM): 51% |
